Assay results published in PubChem BioAssay (NCI).
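Growth conditions: 96-well plates. Treatment: test compound, 48 hours, 5 concentrations. Analysis: linear interpolation between bracketing concentrations; unreached endpoints set to highest concentration. GI50 = concentration required for 50% inhibition of growth. At the TGI there is no net growth.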

Assays:
Test in all cases: NCI-60 cell line screen, 48 h
SR leukemia = test system: SR leukemia
SK-MEL-28 melanoma = test system: SK-MEL-28 melanoma
M14 melanoma = test system: M14 melanoma
HOP-92 NSCLC = test system: HOP-92 NSCLC
SK-MEL-5 melanoma = test system: SK-MEL-5 melanoma
UACC-62 melanoma = test system: UACC-62 melanoma
MDA-MB-468 breast = test system: MDA-MB-468 breast
OVCAR-4 ovarian = test system: OVCAR-4 ovarian
CCRF-CEM leukemia = test system: CCRF-CEM leukemia
HS 578T breast = test system: HS 578T breast
MDA-MB-435 = test system: MDA-MB-435
SK-MEL-2 melanoma = test system: SK-MEL-2 melanoma
HCC-2998 colon = test system: HCC-2998 colon
OVCAR-5 ovarian = test system: OVCAR-5 ovarian
MDA-MB-231 breast = test system: MDA-MB-231 breast
T-47D breast = test system: T-47D breast
SK-OV-3 ovarian = test system: SK-OV-3 ovarian
EKVX NSCLC = test system: EKVX NSCLC
A498 renal = test system: A498 renal
SF-268 CNS = test system: SF-268 CNS
DU-145 prostate = test system: DU-145 prostate
NCI-H23 lung = test system: NCI-H23 lung
U251 CNS = test system: U251 CNS
TK-10 renal = test system: TK-10 renal
SN12C renal = test system: SN12C renal
NCI-H460 lung = test system: NCI-H460 lung
MCF7 breast = test system: MCF7 breast
NCI-H226 lung = test system: NCI-H226 lung
RXF 393 renal = test system: RXF 393 renal
PC-3 prostate = test system: PC-3 prostate
NCI/ADR-RES ovarian = test system: NCI/ADR-RES ovarian
OVCAR-8 ovarian = test system: OVCAR-8 ovarian
SF-295 CNS = test system: SF-295 CNS
K-562 leukemia = test system: K-562 leukemia
MALME-3M melanoma = test system: MALME-3M melanoma
IGROV1 ovarian = test system: IGROV1 ovarian
HL-60(TB) leukemia = test system: HL-60(TB) leukemia
HT29 colon = test system: HT29 colon
MOLT-4 leukemia = test system: MOLT-4 leukemia
COLO 205 colon = test system: COLO 205 colon
HOP-62 NSCLC = test system: HOP-62 NSCLC
OVCAR-3 ovarian = test system: OVCAR-3 ovarian
SF-539 CNS = test system: SF-539 CNS
SW-620 colon = test system: SW-620 colon
786-0 renal = test system: 786-0 renal
A549 NSCLC = test system: A549 NSCLC
LOX IMVI melanoma = test system: LOX IMVI melanoma
NCI-H522 lung = test system: NCI-H522 lung
RPMI-8226 leukemia = test system: RPMI-8226 leukemia
SNB-19 CNS = test system: SNB-19 CNS
KM12 colon = test system: KM12 colon
CAKI-1 renal = test system: CAKI-1 renal
BT-549 breast = test system: BT-549 breast
UACC-257 melanoma = test system: UACC-257 melanoma
SNB-75 CNS = test system: SNB-75 CNS
HCT-15 colon = test system: HCT-15 colon
ACHN renal = test system: ACHN renal
UO-31 renal = test system: UO-31 renal

Structure (SMILES): CN1CCN(c2ccc(Nc3nc(NCCCNC(=O)c4ccc(F)cc4)c4sccc4n3)cc2)CC1
- GI50 (SR leukemia): 1.71 µM
- TGI (SR leukemia): 4.6 µM
- GI50 (SK-MEL-28 melanoma): 1.77 µM
- TGI (SK-MEL-28 melanoma): 3.45 µM
- GI50 (M14 melanoma): 1.83 µM
- TGI (M14 melanoma): 3.59 µM
- GI50 (HOP-92 NSCLC): 7.45 µM
- TGI (HOP-92 NSCLC): 28.2 µM
- GI50 (SK-MEL-5 melanoma): 2.08 µM
- TGI (SK-MEL-5 melanoma): 4.95 µM
- GI50 (UACC-62 melanoma): 2.04 µM
- TGI (UACC-62 melanoma): 4.58 µM
- GI50 (MDA-MB-468 breast): 1.46 µM
- TGI (MDA-MB-468 breast): 4.82 µM
- GI50 (OVCAR-4 ovarian): 5.84 µM
- TGI (OVCAR-4 ovarian): 29.5 µM
- GI50 (CCRF-CEM leukemia): 1.92 µM
- TGI (CCRF-CEM leukemia): 4.99 µM
- GI50 (HS 578T breast): 6.09 µM
- TGI (HS 578T breast): 32.2 µM
- GI50 (MDA-MB-435): 4.3 µM
- TGI (MDA-MB-435): 16.1 µM
- GI50 (SK-MEL-2 melanoma): 14.5 µM
- TGI (SK-MEL-2 melanoma): 28.3 µM
- GI50 (HCC-2998 colon): 3.38 µM
- TGI (HCC-2998 colon): 11.9 µM
- GI50 (OVCAR-5 ovarian): 11.7 µM
- TGI (OVCAR-5 ovarian): 26 µM
- GI50 (MDA-MB-231 breast): 4.15 µM
- TGI (MDA-MB-231 breast): 14.5 µM
- GI50 (T-47D breast): 2.64 µM
- TGI (T-47D breast): 13.7 µM
- GI50 (SK-OV-3 ovarian): 16.5 µM
- TGI (SK-OV-3 ovarian): 34.1 µM
- GI50 (EKVX NSCLC): 12.4 µM
- TGI (EKVX NSCLC): 25.5 µM
- GI50 (A498 renal): 18.8 µM
- TGI (A498 renal): 32.8 µM
- GI50 (SF-268 CNS): 4.38 µM
- TGI (SF-268 CNS): 22.4 µM
- GI50 (DU-145 prostate): 7.65 µM
- TGI (DU-145 prostate): 21 µM
- GI50 (NCI-H23 lung): 10.3 µM
- TGI (NCI-H23 lung): 24.9 µM
- GI50 (U251 CNS): 3.01 µM
- TGI (U251 CNS): 10.5 µM
- GI50 (TK-10 renal): 5.55 µM
- TGI (TK-10 renal): 17.7 µM
- GI50 (SN12C renal): 10.5 µM
- TGI (SN12C renal): 23.3 µM
- GI50 (NCI-H460 lung): 3.25 µM
- TGI (NCI-H460 lung): 12.8 µM
- GI50 (MCF7 breast): 2.67 µM
- TGI (MCF7 breast): 11.1 µM
- GI50 (NCI-H226 lung): 11.3 µM
- TGI (NCI-H226 lung): 23.9 µM
- GI50 (RXF 393 renal): 1.45 µM
- TGI (RXF 393 renal): 3.25 µM
- GI50 (PC-3 prostate): 3.19 µM
- TGI (PC-3 prostate): 16.6 µM
- GI50 (NCI/ADR-RES ovarian): 4.18 µM
- TGI (NCI/ADR-RES ovarian): 24.9 µM
- GI50 (OVCAR-8 ovarian): 4.14 µM
- TGI (OVCAR-8 ovarian): 51.2 µM
- GI50 (SF-295 CNS): 1.83 µM
- TGI (SF-295 CNS): 4.2 µM
- GI50 (K-562 leukemia): 1.41 µM
- TGI (K-562 leukemia): 4.72 µM
- GI50 (MALME-3M melanoma): 1.79 µM
- TGI (MALME-3M melanoma): 3.2 µM
- GI50 (IGROV1 ovarian): 5.98 µM
- TGI (IGROV1 ovarian): 19.9 µM
- GI50 (HL-60(TB) leukemia): 1.52 µM
- TGI (HL-60(TB) leukemia): 3.39 µM
- GI50 (HT29 colon): 2.46 µM
- TGI (HT29 colon): 7.78 µM
- GI50 (MOLT-4 leukemia): 1.67 µM
- TGI (MOLT-4 leukemia): 5.38 µM
- GI50 (COLO 205 colon): 5.29 µM
- TGI (COLO 205 colon): 20.5 µM
- GI50 (HOP-62 NSCLC): 16.4 µM
- TGI (HOP-62 NSCLC): 35.7 µM
- GI50 (OVCAR-3 ovarian): 3.52 µM
- TGI (OVCAR-3 ovarian): 13.3 µM
- GI50 (SF-539 CNS): 1.69 µM
- TGI (SF-539 CNS): 3.16 µM
- GI50 (SW-620 colon): 3.04 µM
- TGI (SW-620 colon): 10.2 µM
- GI50 (786-0 renal): 1.91 µM
- TGI (786-0 renal): 5.45 µM
- GI50 (A549 NSCLC): 4.77 µM
- TGI (A549 NSCLC): 22.2 µM
- GI50 (LOX IMVI melanoma): 1.67 µM
- TGI (LOX IMVI melanoma): 3.31 µM
- GI50 (NCI-H522 lung): 1.77 µM
- TGI (NCI-H522 lung): 3.92 µM
- GI50 (RPMI-8226 leukemia): 1.79 µM
- TGI (RPMI-8226 leukemia): 4.25 µM
- GI50 (SNB-19 CNS): 7.97 µM
- TGI (SNB-19 CNS): 20.6 µM
- GI50 (KM12 colon): 4.32 µM
- TGI (KM12 colon): 18.2 µM
- GI50 (CAKI-1 renal): 3.43 µM
- TGI (CAKI-1 renal): 15.2 µM
- GI50 (BT-549 breast): 4.39 µM
- TGI (BT-549 breast): 16.7 µM
- GI50 (UACC-257 melanoma): 2.14 µM
- TGI (UACC-257 melanoma): 4.94 µM
- GI50 (SNB-75 CNS): 7.14 µM
- TGI (SNB-75 CNS): 21.5 µM
- GI50 (HCT-15 colon): 2.31 µM
- TGI (HCT-15 colon): 8.13 µM
- GI50 (ACHN renal): 3.04 µM
- TGI (ACHN renal): 13.2 µM
- GI50 (UO-31 renal): 11.7 µM
- TGI (UO-31 renal): 23.9 µM
